{
  "source": "paper PMC7951137",
  "about": "(ACS chemical neuroscience, 2021)",
  "key": {"D189N hMC4R [1]": {"biological_target": "T1, D189N hMC4R (Homo sapiens, UniProt P32245, D189N)", "T1 sequence (P32245 whole entry D189N)": "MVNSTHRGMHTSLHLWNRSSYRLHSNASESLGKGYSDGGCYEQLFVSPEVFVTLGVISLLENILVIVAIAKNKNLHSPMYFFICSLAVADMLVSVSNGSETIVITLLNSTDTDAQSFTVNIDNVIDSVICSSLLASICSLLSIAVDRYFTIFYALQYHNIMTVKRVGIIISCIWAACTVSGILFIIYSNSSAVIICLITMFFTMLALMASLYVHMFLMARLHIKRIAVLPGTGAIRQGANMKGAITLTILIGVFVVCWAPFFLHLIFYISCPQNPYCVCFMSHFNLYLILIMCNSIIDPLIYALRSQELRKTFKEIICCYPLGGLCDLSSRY", "test": "cAMP AlphaScreen agonist / inverse agonist assay", "type": "cell-based", "conditions": "D189N hMC4R"}, "D189K hMC4R [2]": {"biological_target": "T2, D189K hMC4R (Homo sapiens, UniProt P32245, D189K)", "T2 sequence (P32245 whole entry D189K)": "as the sequence (P32245 whole entry D189N) above, with N189K counted along it"}, "D189S hMC4R [3]": {"biological_target": "T3, D189S hMC4R (Homo sapiens, UniProt P32245, D189S)", "T3 sequence (P32245 whole entry D189S)": "as the sequence (P32245 whole entry D189N) above, with N189S counted along it", "test": "cAMP AlphaScreen agonist / inverse agonist assay", "type": "cell-based", "conditions": "D189S hMC4R"}, "wildtype hMC4R [4]": {"biological_target": "T4, wildtype hMC4R (Homo sapiens, UniProt P32245)", "T4 sequence (P32245 whole entry)": "as the sequence (P32245 whole entry D189N) above, with N189D counted along it", "test": "cAMP AlphaScreen agonist / inverse agonist assay", "type": "cell-based", "conditions": "WT hMC4R, basal = signal at 10^−12 M"}, "D189K hMC4R [5]": {"biological_target": "T2, D189K hMC4R", "test": "cAMP AlphaScreen agonist / inverse agonist assay", "type": "cell-based"}, "D189Q hMC4R [6]": {"biological_target": "T5, D189Q hMC4R (Homo sapiens, UniProt P32245, D189Q)", "T5 sequence (P32245 whole entry D189Q)": "as the sequence (P32245 whole entry D189N) above, with N189Q counted along it", "test": "cAMP AlphaScreen agonist / inverse agonist assay", "type": "cell-based", "conditions": "for Inverse agonist percent decrease from basal activity: D189Q hMC4R"}, "D189A hMC4R [7]": {"biological_target": "T6, D189A hMC4R (Homo sapiens, UniProt P32245, D189A)", "T6 sequence (P32245 whole entry D189A)": "as the sequence (P32245 whole entry D189N) above, with N189A counted along it", "test": "cAMP AlphaScreen agonist / inverse agonist assay", "type": "cell-based"}, "D189S hMC4R [8]": {"biological_target": "T3, D189S hMC4R", "test": "cAMP AlphaScreen antagonist assay", "type": "cell-based", "conditions": "Schild analysis, agonist NDP-MSH"}, "D189E hMC4R": {"biological_target": "D189E hMC4R (Homo sapiens, UniProt P32245, D189E)", "sequence (P32245 whole entry D189E)": "as the sequence (P32245 whole entry D189N) above, with N189E counted along it", "test": "cAMP AlphaScreen agonist / inverse agonist assay", "type": "cell-based", "conditions": "for Inverse agonist percent decrease from basal activity: D189E hMC4R"}, "mMC4R": {"test_system": "mMC4R", "conditions": "cited from earlier work"}, "wildtype hMC4R [9]": {"biological_target": "T4, wildtype hMC4R", "test": "cAMP AlphaScreen antagonist assay", "type": "cell-based", "conditions": "hMC4R"}, "D189N hMC4R [10]": {"biological_target": "T1, D189N hMC4R", "test": "cAMP AlphaScreen antagonist assay", "type": "cell-based"}, "D189K hMC4R [11]": {"biological_target": "T2, D189K hMC4R", "test": "cAMP AlphaScreen antagonist assay", "type": "cell-based"}, "D189A hMC4R [12]": {"biological_target": "T6, D189A hMC4R", "test": "cAMP AlphaScreen antagonist assay", "type": "cell-based"}, "D189Q hMC4R [13]": {"biological_target": "T5, D189Q hMC4R", "test": "cAMP AlphaScreen antagonist assay", "type": "cell-based"}, "[14]": {"biological_target": "T7, human melanocortin-4 receptor (hMC4R), wild type, N-terminal FLAG-tagged (human, UniProt P32245 1-332)", "T7 sequence (P32245 whole entry)": "as the sequence (P32245 whole entry D189N) above, with N189D counted along it", "test": "radioligand binding"}, "[15]": {"biological_target": "T8, D189K mutant hMC4R, N-terminal FLAG-tagged (human, UniProt P32245 1-332, D189K)", "T8 sequence (P32245 whole entry D189K)": "as the sequence (P32245 whole entry D189N) above, with N189K counted along it", "test": "radioligand binding"}, "[16]": {"biological_target": "T7, human melanocortin-4 receptor (hMC4R), …", "test": "radioligand binding", "remark": "listed apart in the source"}, "[17]": {"biological_target": "T9, D189Q mutant hMC4R, N-terminal FLAG-tagged (human, UniProt P32245 1-332, D189Q)", "T9 sequence (P32245 whole entry D189Q)": "as the sequence (P32245 whole entry D189N) above, with N189Q counted along it", "test": "radioligand binding"}, "[18]": {"biological_target": "T10, D189S mutant hMC4R, N-terminal FLAG-tagged (human, UniProt P32245 1-332, D189S)", "T10 sequence (P32245 whole entry D189S)": "as the sequence (P32245 whole entry D189N) above, with N189S counted along it", "test": "radioligand binding"}, "[19]": {"biological_target": "T11, D189A mutant hMC4R, N-terminal FLAG-tagged (human, UniProt P32245 1-332, D189A)", "T11 sequence (P32245 whole entry D189A)": "as the sequence (P32245 whole entry D189N) above, with N189A counted along it", "test": "radioligand binding"}, "[20]": {"biological_target": "T12, D189E mutant hMC4R, N-terminal FLAG-tagged (human, UniProt P32245 1-332, D189E)", "T12 sequence (P32245 whole entry D189E)": "as the sequence (P32245 whole entry D189N) above, with N189E counted along it", "test": "radioligand binding"}, "[21]": {"biological_target": "T13, D189N mutant hMC4R, N-terminal FLAG-tagged (human, UniProt P32245 1-332, D189N)", "T13 sequence (P32245 whole entry D189N)": "as the sequence (P32245 whole entry D189N) above", "test": "radioligand binding"}, "[22]": {"biological_target": "T8, D189K mutant hMC4R, N-terminal …", "test": "cell-based or functional assay"}, "[23]": {"biological_target": "T9, D189Q mutant hMC4R, N-terminal …", "test": "cell-based or functional assay"}, "[24]": {"biological_target": "T10, D189S mutant hMC4R, N-terminal …", "test": "cell-based or functional assay"}, "[25]": {"biological_target": "T11, D189A mutant hMC4R, N-terminal …", "test": "cell-based or functional assay"}, "[26]": {"biological_target": "T12, D189E mutant hMC4R, N-terminal …", "test": "cell-based or functional assay"}, "[27]": {"biological_target": "T13, D189N mutant hMC4R, N-terminal …", "test": "cell-based or functional assay"}, "[28]": {"biological_target": "T7, human melanocortin-4 receptor (hMC4R), …", "test": "cell-based or functional assay"}},
  "note": "Read-outs that look alike come from different tables or passages of the source.",
  "data": [
    {"molecule": "agouti-related protein (AGRP86–132) [hAGRP(86–132), reference compound]", "values": [
      {"measurement": "Inverse agonist percent decrease from basal activity", "setting": "D189N hMC4R [1]", "value": "30±10 (−10%)"},
      {"measurement": "Decreased I125-AGRP binding affinity versus wildtype", "setting": "D189K hMC4R [2]", "value": 10, "unit": "fold"},
      {"measurement": "Inverse agonist percent decrease from basal activity", "setting": "D189S hMC4R [3]", "value": "20±10 (−20%)"},
      {"measurement": "Inverse agonist percent decrease from basal signal", "setting": "wildtype hMC4R [4]", "value": "2.4±0.5 (−35%)"},
      {"measurement": "Inverse agonist percent decrease from basal signal", "setting": "wildtype hMC4R [4]; listed as AGRP", "value": 35, "unit": "%"},
      {"measurement": "Inverse agonist activity", "setting": "D189K hMC4R [5]", "value": "no apparent inverse agonist activity"},
      {"measurement": "Inverse agonist percent decrease from basal activity", "setting": "D189Q hMC4R [6]", "value": "17±5 (−35%)"},
      {"measurement": "Inverse agonist activity", "setting": "D189A hMC4R [7]", "value": "no apparent inverse agonist activity"},
      {"measurement": "Antagonist pA2", "setting": "D189S hMC4R [8]", "value": "8.2±0.2"},
      {"measurement": "Inverse agonist percent decrease from basal activity", "setting": "D189E hMC4R", "value": "4.4±0.1 (−35%)"}
    ]},
    {"molecule": "c[Pro-Arg-Phe-Phe-Phe-Ala-Phe-DPro] [MDE3–119-14c]", "values": [
      {"measurement": "Previously decreased antagonist potency (comparator not restated)", "setting": "mMC4R", "value": "50–100 fold"},
      {"measurement": "Decrease in antagonist potency relative to MDE3–119-8c", "setting": "wildtype hMC4R [9]", "value": 80, "unit": "fold"}
    ]},
    {"molecule": "C[C@@H]1NC(=O)[C@H](CC(=O)O)NC(=O)[C@H](Cc2ccccc2)NC(=O)[C@H](Cc2ccccc2)NC(=O)[C@H](CCCNC(=N)N)NC(=O)[C@@H]2CCCN2C(=O)[C@H]2CCCN2C(=O)[C@H](Cc2ccccc2)NC1=O", "note": "[MDE3–119-4c, c[Pro-Arg-Phe-Phe-Asp-Ala-Phe-DPro]]", "values": [
      {"measurement": "Kb", "setting": "D189N hMC4R [10]", "value": 398, "unit": "nM"},
      {"measurement": "Inverse agonist percent decrease from basal activity", "setting": "D189S hMC4R [3]", "value": "−15", "unit": "%"},
      {"measurement": "Kb", "setting": "D189K hMC4R [11]", "value": "> 3160", "unit": "nM"},
      {"measurement": "Inverse agonist percent decrease from basal signal", "setting": "wildtype hMC4R [4]", "value": "−35", "unit": "%"},
      {"measurement": "Kb", "setting": "D189A hMC4R [12]", "value": "> 3160", "unit": "nM"},
      {"measurement": "EC50", "setting": "D189Q hMC4R [6]", "value": 7000, "unit": "nM"},
      {"measurement": "Inverse agonist percent decrease from basal activity", "setting": "D189Q hMC4R [6]", "value": "−45", "unit": "%"},
      {"measurement": "EC50", "setting": "D189E hMC4R", "value": 3000, "unit": "nM"},
      {"measurement": "Inverse agonist percent decrease from basal activity", "setting": "D189E hMC4R", "value": "−40", "unit": "%"},
      {"measurement": "Kb", "setting": "D189Q hMC4R [13]", "value": 1580, "unit": "nM"}
    ]},
    {"molecule": "RCVRLHESCLGQQVPCCDPCATCYCRFFNAFCYCRKLGTAMNPCSRT (domain or fragment, UniProt O00253 86-132, looked up)", "note": "[human agouti-related protein hAGRP(86–132)]", "values": [
      {"measurement": "IC50", "setting": "[14]", "value": 12, "unit": "nM"},
      {"measurement": "IC50", "setting": "[15]", "value": 150, "unit": "nM"},
      {"measurement": "IC50", "setting": "[16]", "value": 12, "unit": "nM"},
      {"measurement": "IC50", "setting": "[17]", "value": 10, "unit": "nM"},
      {"measurement": "IC50", "setting": "[18]", "value": 12.5, "unit": "nM"},
      {"measurement": "IC50", "setting": "[19]", "value": "> 1000", "unit": "nM"},
      {"measurement": "IC50", "setting": "[20]", "value": 6, "unit": "nM"},
      {"measurement": "IC50", "setting": "[21]", "value": 10.5, "unit": "nM"},
      {"measurement": "pA2, antagonism of NDP-MSH (Schild analysis), cAMP AlphaScreen, HEK293 cells", "setting": "[22]", "value": 7.2},
      {"measurement": "pA2, antagonism of NDP-MSH (Schild analysis), cAMP AlphaScreen, HEK293 cells", "setting": "[23]", "value": 8.1},
      {"measurement": "pA2, antagonism of NDP-MSH (Schild analysis), cAMP AlphaScreen, HEK293 cells", "setting": "[24]", "value": 8.2},
      {"measurement": "pA2, antagonism of NDP-MSH (Schild analysis), cAMP AlphaScreen, HEK293 cells", "setting": "[25]", "value": 6.9},
      {"measurement": "pA2, antagonism of NDP-MSH (Schild analysis), cAMP AlphaScreen, HEK293 cells", "setting": "[26]", "value": 8.8},
      {"measurement": "pA2, antagonism of NDP-MSH (Schild analysis), cAMP AlphaScreen, HEK293 cells", "setting": "[27]", "value": 8.4},
      {"measurement": "pA2, antagonism of NDP-MSH (Schild analysis), cAMP AlphaScreen, HEK293 cells", "setting": "[28]", "value": 8.8}
    ]}
  ]
}
